Experimental data taken from US10168338B2, “Methods of identifying modulators of sestrin-gator-2 interaction for modulating mTORC1 activity” (Whitehead Institute for Biomedical Research, priority 2014, dated 2019).

Target: T1, bacterially-produced Sestrin2 (Homo sapiens, UniProt P58004)
T1 construct: made in house; host or cells: Escherichia coli BL21 DE3 star
T1 sequence (P58004 1-480): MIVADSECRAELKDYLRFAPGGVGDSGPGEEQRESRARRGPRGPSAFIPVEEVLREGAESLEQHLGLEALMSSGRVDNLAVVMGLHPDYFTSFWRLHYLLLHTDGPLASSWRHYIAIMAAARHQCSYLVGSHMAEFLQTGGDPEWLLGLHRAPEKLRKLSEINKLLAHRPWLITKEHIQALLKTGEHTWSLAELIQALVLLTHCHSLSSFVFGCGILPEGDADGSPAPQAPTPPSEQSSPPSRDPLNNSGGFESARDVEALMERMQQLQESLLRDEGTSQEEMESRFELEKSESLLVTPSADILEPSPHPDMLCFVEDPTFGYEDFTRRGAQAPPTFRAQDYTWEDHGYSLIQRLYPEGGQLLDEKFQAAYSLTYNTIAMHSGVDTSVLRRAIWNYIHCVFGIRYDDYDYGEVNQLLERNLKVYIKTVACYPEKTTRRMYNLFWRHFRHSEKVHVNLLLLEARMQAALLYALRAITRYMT
Assay: [3H]-leucine binding to bacterially-produced His-MBP-Sestrin2 on Ni-NTA resin
Conditions: RagA-RagC heterodimer as control
Procedure: Recombinant Sestrin2 was expressed in Escherichia coli (strain BL21 DE3 star) from the His-MBP-TEV-Sestrin2 in pMAL6H-CSXT plasmid. The bacterial cultures were grown at 30° C. to an optical density of 0.4 at which point the temperature was lowered to 18° C. After 30 minutes at 18° C., the cultures were induced overnight at 18° C. with 0.5 mM IPTG. The cells were subsequently resuspended in lysis buffer with TCEP (50 mM Tris pH 7.4, 200 mM NaCl, 5 mM MgCl2, 0.1% CHAPS, 1 mM TCEP, 200 μM leucine, and protease inhibitor tablets), which was then supplemented with lysozyme and crude DNAse. The cells underwent mechanical homogenization and the lysates were cleared by centrifugation and then loaded onto the Ni-NTA resin. […]
For binding assays performed with bacterially-produced proteins, 23.6 μg His-RagA/RagC, 23.6 μg His-MBP-TEV-Sestrin2, or 73.6 μg His-MBP-TEV-Sestrin2 were diluted into 500 μl lysis buffer (50 mM Tris pH 7.4, 200 mM NaCl, 5 mM MgCl2, 0.1% CHAPS) and incubated with 15 μl compact Ni-NTA resin as previously described. […] The samples were then well mixed with a cut tip and 10 μl of each was loaded into scintillation fluid in triplicate and quantified with a TriCarb® Scintillation Counter. Samples performed in parallel were eluted with lysis buffer+300 mM imidazole and analyzed by SDS-PAGE as described above.

## CC(C)C[C@H](N)C(=O)O [leucine]
  binding of radiolabelled leucine to bacterially-produced Sestrin2: bound to bacterially-produced Sestrin2
